This passage reports KM results from publication PMC10927554, “An improved pathway for autonomous bioluminescence imaging in eukaryotes” (Nature Methods, 2024).

The target in this test is T1, nnLuz (Neonothopanus nambi, UniProt A0A3G9JYH7, I3S/N4T/F11L/I63T/T99P/T192S/A199P).
T1 construct: gene luz; HiBiT-tag fusion, expressed in yeast Pichia pastoris GS115, clarified lysate; codon-optimized synthetic gene
Kind of test: luminescence, Michaelis-Menten fit, HiBiT-normalized. The class given is biochemical. Conditions: yeast lysate; 0.2 M sodium phosphate, 0.5 M Na2SO4, pH 8; Fln 0.0244-50 uM; DDM, thioglycolic acid; variant nnLuz_v4. In general terms: With HiBiT, luminescence reflects the tagged protein that the partner subunit can reach.

SMILES strings stand for the structures.

T1 sequence (A0A3G9JYH7 whole entry I3S/N4T/F11L/I63T/T99P/T192S/A199P, the tested form may be a part): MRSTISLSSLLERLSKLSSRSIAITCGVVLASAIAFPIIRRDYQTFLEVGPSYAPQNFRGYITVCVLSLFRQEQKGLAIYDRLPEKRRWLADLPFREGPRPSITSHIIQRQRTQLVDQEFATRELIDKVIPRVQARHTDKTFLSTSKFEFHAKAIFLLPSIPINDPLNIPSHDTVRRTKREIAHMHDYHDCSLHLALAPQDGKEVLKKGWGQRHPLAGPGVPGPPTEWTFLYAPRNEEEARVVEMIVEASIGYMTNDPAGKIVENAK

With `O=c1oc(/C=C/c2ccc(O)c(O)c2)cc(O)c1O` [Fln, fungal luciferin], the KM entry is given as “Yeast strains expressing nnLuz_wt/v4–HiBIT fusions were inoculated into YPD medium”.
